# Results from the supplement of paper PMC11281043.
# Tests used:
# Details in all cases: exposure: 6-8 hpf to 5 dpf, scored at 6 dpf
# [1] = tested on: Danio rerio embryo/larva; assay: BMC mortality; max tested concentration (log10 uM): 2; higher = less potent
# Description: (§1)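 Zebrafish embryos (with chorion) were exposed from 6-8 hpf to each PFAS (8-point half-log series, top concentration up to 100 uM, 0.4% DMSO, sealed plates, 26 C; n = 6 embryos per concentration), rinsed at 5 dpf and scored at 6 dpf by two blinded observers for mortality, hatching and malformations. Endpoint scores are the % of living larvae affected (dead larvae excluded; […]). Curves were fitted with tcpl (cutoff 16%), and the BMC is the concentration at a benchmark response of 21.6%.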
# [2] = tested on: Danio rerio embryo/larva; assay: BMC any abnormality; max tested concentration (log10 uM): 2; higher = less potent
# Description: as §1
# [3] = tested on: Danio rerio embryo/larva; assay: max % larvae with any abnormality across tested concentrations; max tested concentration (log10 uM): 2; higher = more toxic; extreme values may be limits of the assay
# [4] = tested on: Danio rerio embryo/larva; assay: BMC edema; higher = less potent
# Description: as §1
# [5] = tested on: Danio rerio embryo/larva; assay: BMC craniofacial defects; higher = less potent
# Description: as §1
# [6] = tested on: Danio rerio embryo/larva; assay: max % larvae unhatched across tested concentrations; max tested concentration (log10 uM): 2; higher = more toxic
# [7] = tested on: Danio rerio embryo/larva; assay: max % larvae dead across tested concentrations; max tested concentration (log10 uM): 2; higher = more toxic; extreme values may be limits of the assay
# [8] = tested on: Danio rerio embryo/larva; assay: BMC abnormal position; higher = less potent
# Description: as §1
# [9] = tested on: Danio rerio embryo/larva; assay: BMC swim bladder non-inflation; higher = less potent
# Description: as §1
# [10] = tested on: Danio rerio embryo/larva; assay: max % larvae with abnormal position across tested concentrations; higher = more toxic; extreme values may be limits of the assay
# [11] = tested on: Danio rerio embryo/larva; assay: max % larvae with uninflated swim bladder across tested concentrations; higher = more toxic; extreme values may be limits of the assay
# [12] = tested on: Danio rerio embryo/larva; assay: max % larvae with tail defects across tested concentrations; higher = more toxic; extreme values may be limits of the assay
# [13] = tested on: Danio rerio embryo/larva; assay: max % larvae with blood pooling across tested concentrations; higher = more toxic; extreme values may be limits of the assay
# [14] = tested on: Danio rerio embryo/larva; assay: BMC general abnormality; higher = less potent
# Description: as §1
# [15] = tested on: Danio rerio embryo/larva; assay: max % larvae with spinal defects across tested concentrations; higher = more toxic; extreme values may be limits of the assay
# [16] = tested on: Danio rerio embryo/larva; assay: max % larvae with pigmentation defects across tested concentrations; higher = more toxic
# [17] = tested on: Danio rerio embryo/larva; assay: max % larvae with edema across tested concentrations; higher = more toxic; extreme values may be limits of the assay
# [18] = tested on: Danio rerio embryo/larva; assay: max % larvae generally abnormal across tested concentrations; higher = more toxic; extreme values may be limits of the assay
# [19] = tested on: Danio rerio embryo/larva; assay: max % larvae with craniofacial defects across tested concentrations; higher = more toxic; extreme values may be limits of the assay
# [20] = max tested concentration (log10 uM): 2
# [21] = max tested concentration (log10 uM): 1
# [22] = max tested concentration (log10 uM): 0.477121
SMILES,BMC mortality [1] [µM],BMC any abnormality [2] [µM],max % larvae [3] [%],max % larvae unhatched across tested concentrations [6] [%],max % larvae dead across tested concentrations [7] [%],further results
CC(C)(C)C(=O)CC(=O)C(F)(F)C(F)(F)C(F)(F)F [(Heptafluorobutanoyl)pivaloylmethane],31.2,23.4,100,0,58.3,"BMC edema [4, 20]: 25.6 µM; BMC craniofacial defects [5, 20]: 26.6 µM; BMC abnormal position [8, 20]: 33.1 µM; BMC swim bladder non-inflation [9, 20]: 23 µM"
O=C(CC(=O)C(F)(F)C(F)(F)C(F)(F)F)c1cccs1 [(Perfluorobutyryl)-2-thenoylmethane],6.44,3.11,100,0,100,
CCNS(=O)(=O)C(F)(F)C(F)(F)C(F)(F)C(F)(F)C(F)(F)C(F)(F)C(F)(F)C(F)(F)F [N-Ethylperfluorooctane sulfonamide],19.5,2.37,100,0,100,"BMC edema [4, 21]: 2.88 µM; BMC swim bladder non-inflation [9, 21]: 3.13 µM"
"FC(F)(I)C(F)(F)C(F)(F)C(F)(F)I [Perfluoro-1,4-diiodobutane]",,14.8,70.8,0,16.7,"BMC edema [4, 20]: 20.6 µM; BMC craniofacial defects [5, 20]: 74.2 µM; BMC swim bladder non-inflation [9, 20]: 25.6 µM"
"O=C(O)C(F)(F)OC(F)(F)C(F)(F)OC(F)(F)C(F)(F)OC(F)(F)C(F)(F)C(F)(F)C(F)(F)F [Perfluoro-3,6,9-trioxatridecanoic acid]",7.79,2.47,100,0,100,"BMC edema [4, 21]: 3.13 µM; BMC abnormal position [8, 21]: 8.04 µM; BMC swim bladder non-inflation [9, 21]: 1.3 µM"
"O=C(O)C(F)(F)OC(F)(F)C(F)(F)OC(F)(F)C(F)(F)C(F)(F)C(F)(F)F [Perfluoro-3,6-dioxadecanoic acid]",75.3,,91.7,0,66.7,
O=C(O)C(F)(F)C(F)(F)C(F)(F)C(F)(F)C(F)(F)C(F)(F)C(F)(F)C(F)(F)C(F)(F)F [Perfluorodecanoic acid],11.2,9.34,100,0,100,BMC swim bladder non-inflation ([9]; max tested concentration (log10 uM): 1.47712): 10.1 µM
NS(=O)(=O)C(F)(F)C(F)(F)C(F)(F)C(F)(F)C(F)(F)C(F)(F)F [Perfluorohexanesulfonamide],,1.45,100,0,,"BMC edema [4, 22]: 1.66 µM; BMC craniofacial defects [5, 22]: 2.4 µM; BMC abnormal position [8, 22]: 2.67 µM; BMC swim bladder non-inflation [9, 22]: 2.28 µM"
O=S(=O)(O)C(F)(F)C(F)(F)C(F)(F)C(F)(F)C(F)(F)C(F)(F)F [Perfluorohexanesulfonic acid],,30.2,100,0,,"BMC edema [4, 20]: 31.7 µM; BMC craniofacial defects [5, 20]: 78.9 µM; BMC abnormal position [8, 20]: 90.6 µM; BMC swim bladder non-inflation [9, 20]: 34.1 µM"
O=C(O)C(F)(F)C(F)(F)C(F)(F)C(F)(F)C(F)(F)C(F)(F)C(F)(F)C(F)(F)F [Perfluorononanoic acid],73.9,25.5,100,0,75,"BMC edema [4, 20]: 28 µM; BMC abnormal position [8, 20]: 87.8 µM; BMC swim bladder non-inflation [9, 20]: 25.5 µM"
N=C(N)C(F)(F)C(F)(F)C(F)(F)C(F)(F)C(F)(F)C(F)(F)C(F)(F)F [Perfluorooctanamidine],19.5,19.5,100,0,100,
O=S(=O)(O)C(F)(F)C(F)(F)C(F)(F)C(F)(F)C(F)(F)C(F)(F)C(F)(F)C(F)(F)F [Perfluorooctanesulfonic acid],9.38,7.48,100,0,100,"BMC edema [4, 21]: 8.58 µM; BMC craniofacial defects [5, 21]: 8.4 µM; BMC abnormal position [8, 21]: 9.2 µM; BMC swim bladder non-inflation [9, 21]: 8.02 µM"
OC(C(F)(F)F)(C(F)(F)F)C(O)(C(F)(F)F)C(F)(F)F [Perfluoropinacol],,1.94,100,0,,"BMC edema [4, 22]: 2.52 µM; BMC craniofacial defects [5, 22]: 2.47 µM; BMC swim bladder non-inflation [9, 22]: 2.28 µM"
O=C(O)C(F)(F)C(F)(F)C(F)(F)C(F)(F)C(F)(F)C(F)(F)C(F)(F)C(F)(F)C(F)(F)C(F)(F)F [Perfluoroundecanoic acid],14.5,2.94,100,0,100,"BMC edema [4, 22]: 2.74 µM"
O=C(O)C(F)(F)C(F)(F)C(F)(F)C(F)(F)C(F)(F)C(F)(F)C(F)(F)C(F)(F)C(F)(F)C(F)(F)F [Perfluoroundecanoic acid] (max tested concentration (log10 uM): 0.477121),,,,,,max % larvae [10]: 8.33%; max % larvae [11]: 16.7%; max % larvae [12]: 12.5%; max % larvae [13]: 8.33%; BMC general abnormality [14]: 2.74 µM; max % larvae [15]: 8.33%; max % larvae [16]: 0%; max % larvae [17]: 25%; max % larvae generally abnormal across tested concentrations [18]: 25%; max % larvae [19]: 16.7%
